In ChEMBL document CHEMBL4825770, “KRAS Mutant Combination Therapy for the Effective Treatment of Cancer” (ACS Med Chem Lett, 2021):

Tests used:
Assay type in all cases: functional
NCI-H358 [1] = experiment: Cytotoxicity against human NCI-H358 cells harboring KRAS G12C mutant assessed as reduction in cell viability measured after 72 hrs by CellTiter-Glo luciferase-based ATP detection assay; conditions: NCI-H358, 72 h
NCI-H23 [2] = experiment: Cytotoxicity against human NCI-H23 cells harboring KRAS G12C mutant assessed as reduction in cell viability measured after 72 hrs by CellTiter-Glo luciferase-based ATP detection assay; conditions: NCI-H23, 72 h
NCI-H1373 [3] = experiment: Cytotoxicity against human NCI-H1373 cells harboring KRAS G12C mutant assessed as reduction in cell viability measured after 72 hrs by CellTiter-Glo luciferase-based ATP detection assay; conditions: NCI-H1373, 72 h
NCI-H1792 [4] = experiment: Cytotoxicity against human NCI-H1792 cells harboring KRAS G12C mutant assessed as reduction in cell viability measured after 72 hrs by CellTiter-Glo luciferase-based ATP detection assay; conditions: NCI-H1792, 72 h
NCI-H358 [5] = experiment: Cytotoxicity against human NCI-H358 cells harboring KRASG12C mutant assessed as reduction in cell viability measured after 72 hrs in presence of compound 1 by CellTiter-Glo luciferase-based ATP detection assay; conditions: NCI-H358, 72 h
NCI-H23 [6] = experiment: Cytotoxicity against human NCI-H23 cells harboring KRASG12C mutant assessed as reduction in cell viability measured after 72 hrs in presence of compound 1 by CellTiter-Glo luciferase-based ATP detection assay; conditions: NCI-H23, 72 h
NCI-H2122 [7] = experiment: Cytotoxicity against human NCI-H2122 cells harboring KRASG12C mutant assessed as reduction in cell viability measured after 72 hrs in presence of compound 1 by CellTiter-Glo luciferase-based ATP detection assay; conditions: NCI-H2122, 72 h
NCI-H1373 [8] = experiment: Cytotoxicity against human NCI-H1373 cells harboring KRASG12C mutant assessed as reduction in cell viability measured after 72 hrs in presence of compound 1 by CellTiter-Glo luciferase-based ATP detection assay; conditions: NCI-H1373, 72 h
NCI-H1792 [9] = experiment: Cytotoxicity against human NCI-H1792 cells harboring KRASG12C mutant assessed as reduction in cell viability measured after 72 hrs in presence of compound 1 by CellTiter-Glo luciferase-based ATP detection assay; conditions: NCI-H1792, 72 h
NCI-H2122 [10] = experiment: Cytotoxicity against human NCI-H2122 cells harboring KRAS G12C mutant assessed as reduction in cell viability measured after 72 hrs by CellTiter-Glo luciferase-based ATP detection assay; conditions: NCI-H2122, 72 h

**Q.** How did the IC50 (NCI-H358 [1]) turn out when `C=CC(=O)N1CCN(c2nc(=O)n(-c3c(C)ccnc3C(C)C)c3nc(-c4c(O)cccc4F)c(F)cc23)[C@@H](C)C1` [SOTORASIB] was run?
**A.** 0.213 µM

**Q.** And the IC50 (NCI-H23 [2])?
**A.** > 10 µM

**Q.** And the IC50 (NCI-H1373 [3])?
**A.** > 10 µM

**Q.** And the IC50 (NCI-H1792 [4])?
**A.** > 10 µM

**Q.** And the IC50 (NCI-H358 [5])?
**A.** 0.003 µM

**Q.** What about the IC50 (NCI-H23 [6]) of the same molecule?
**A.** 1.5 µM

**Q.** What about the IC50 (NCI-H2122 [7]) of the same molecule?
**A.** 0.0905 µM

**Q.** What about the IC50 (NCI-H1373 [8]) of the same molecule?
**A.** 0.356 µM

**Q.** And the IC50 (NCI-H1792 [9])?
**A.** 3 µM

**Q.** With `C[C@H]1CNC(=O)c2cnn3ccc(nc23)N[C@H](C)c2cc(F)ccc2O1` [REPOTRECTINIB] as the molecule, how does the IC50 (NCI-H358 [1]) read?
**A.** 2.5 µM

**Q.** What about the IC50 (NCI-H23 [2]) of the same molecule?
**A.** 4.06 µM

**Q.** What about the IC50 (NCI-H2122 [10]) of the same molecule?
**A.** 1.94 µM

**Q.** What about the IC50 (NCI-H1373 [3]) of the same molecule?
**A.** 5 µM

**Q.** What about the IC50 (NCI-H1792 [4]) of the same molecule?
**A.** 1.9 µM
